Columns and labels:
[1] = test system: Vitamin B12 deficiency (Cbl−/− diet) mouse model; test: Vitamin B12 deficiency mouse model: bone marrow immunophenotyping (M1/M2 macrophages); format: in vivo, C57BL/6 mice; details: 50 mpk IP BID; for Ratio of M1/M2 macrophages in bone marrow: mice on the cbl−/− diet (untreated: M1/M2 ratio of 6); for Ratio of M1/M2 macrophages compared with mice on a control diet: mice on the cbl−/− diet
Procedure: A vitamin B12 deficiency mouse model was used following the methods described at Ghosh et al 2016.
Animal maintenance and feeding. Female weanling C57BL/6 mice (n=65) were obtained at 3 weeks of age from Shanghai Sippe-Bk Lab Animal Co., Ltd. The mice were housed in a SPF environment and maintained at 20° C.±6, under standard lighting conditions (12-h light/dark cycle). Animals were divided into 5 animals per cage during modelling, and 3 animals per cage during compound test. The 3-week old mice were fed ad libitum with either AIN-76A control diet (D10001i) designated as control diet group or the same diet deficient in vitamin B12 (D07012902) with pectin as the source of fiber (designated as Cbl−/− cobalamin deficient) referred to as B12R+ by Ghosh et al. (Research Diets Inc., New Brunswick, N.J., USA). Cobalamin-restricted diet with pectin (B12R+) contained 50 g pectin/kg diet, because it has been shown earlier that pectin binds the intrinsic factor in the intestine and makes vitamin B12 less bioavailable. The control diet contained 50 g cellulose/kg diet as the fiber source instead of pectin. The mice also had ad libitum access to deionized water. Food intake and body weights were recorded every week.
Compound treatment. After 6 weeks of feeding on either control or Cbl−/− diet, 9-week-old mice on Cbl−/− diet were randomly assigned into 5 groups with 3 mice per group per treatment. Mice in each group were IP treated with vehicle (1% HPBCD, Sigma, H107) or were dosed at 50 mpk with Compound 1 or Compound 410 BID. One group of mice were sacrificed at 24h after the first dose. 2nd group of mice were sacrificed at 72h after the first dose. 3rd group of mice were sacrificed after 168h (i.e 7 days) after the first dose. 4th group of mice were fasted for 12h before sacrificing after 72h of the first dose. 5th group of mice were first fasted for 12h before any vehicle or compound treatment and sacrificed after 72h after the first dose.
Tissue and sample collection. At above specified timepoints, mice were weighed and anesthetized with CO2 before sample collection. For blood collection, the chest was opened to expose the heart. Up to 300 μl blood was drawn from the left ventricle with 1 ml syringe rinsed with EDTA-Na and dispensed into a K3EDTA mini collect tube (Greiner Bio-One) for haematology analysis. Then a new syringe was used to draw remaining blood from heart as much as possible. Serum was isolated by centrifugation at 5000 rpm for 10 min, aliquoted and kept at −80° C. until further use. For tissue collection after blood was drawn, mice were perfused with ice cold saline from the left ventricle. Heart, liver, kidney, spleen, brain was weighed after isolation. Then left leg was kept in ice cold PBS and bone marrow was isolated for further immunophenotype analysis. […]

[2] = test system: Pkd1−/− mouse inner medullary collecting duct cells (mIMRFNPKD 5E4); test: mPKD 3D cyst swelling assay (forskolin-induced); format: cell-based; details: after 72 hours of forskolin exposure
Procedure: Cell model and control compounds. mIMCD3 WT cells were obtained via ATCC and modified to create the mIMRFNPKD 5E4 cell line, which has a CRISPR-Cas mediated knockout for Pkd1 as described SLAS Discov. 2017 September; 22(8):974-984. doi: 10.1177/2472555217716056. Cells were cultured in DMEM/F12 (Sigma)+10% FBS (Sigma)+0.5% Pen/Strep (Gibco)+1% GluMax (Gibco). Control compounds used were forskolin (Calbiochem, 344282), Rapamycin (Selleckchem, S1039) and Staurosporin (Selleckchem, S1421).
The 3D mouse cyst swelling assay was performed with Pkd1^−/− mouse inner medullary collecting duct cells (mIMRFNPKD 5E4). The cyst swelling protocol that was used was described previously (SLAS Discov. 2017 September; 22(8):974-984. doi: 10.1177/2472555217716056), with further optimization.
3D culture and compound exposure. mIMRFNPKD 5E4 cells were mixed with Cyst-Gel (OcellO BV). 15 μL of cell-gel mix was pipetted to 384-well plates (Greiner μClear, Greiner Bio-One B.V.) using a CyBio Felix 96/60 robotic liquid dispenser (Analyik Jena AG). Gel-cell mix was plated at a final cell density of 2250 cells per well. After gel polymerization at 37° C. for 30 minutes, 33 μL culture medium was added to each well. Cells were grown in the gel for 96 hours, after which the cells were co-exposed with forskolin (Calbiochem, 344282) and one the following molecules: reference compound Rapamycin (SelleckChem, S1039), toxic control compound Staurosporin (SelleckChem, S1421) or test compounds.
Sample processing. After 72 hours, cultures were fixed with 4% Formaldehyde (Sigma Aldrich) and simultaneously permeabilized with 0.2% Triton-X100 (Sigma Aldrich) and stained with 0.25 μM rhodamine-phalloidin (Sigma Aldrich) and 0.1% Hoechst 33258 (Sigma Aldrich) in 1×PBS (Sigma Aldrich) for 2 days at 4° C., protected from light. After fixation and staining, plates were washed with 1×PBS, sealed with a Greiner SilverSeal (Greiner Bio-One B.V.) and stored at 4° C. prior to imaging.
Imaging and image analysis. Imaging was done using Molecular Devices ImageXpress Micro XLS (Molecular Devices) with a 4× NIKON objective. For each well around 35 images in the Z-direction were made for both channels, capturing the whole z-plane in each image. Image analysis was performed using Ominer™ software (OcellO BV). Cysts were segmented using detection of Hoechst-stained nuclei and Rhodamine-phalloidin-stained cellular f-actin. Cyst area was determined by calculating for the area in px of each object in every in-focus plain. This was averaged per well. (N represented is number of wells) Fraction of apoptotic nuclei as an indicator of toxicity was calculated as the amount of nuclei without actin signal relative to the total amount of nuclei, both as count-measurements. Statistics was done using KNIME Analytics Platform (Konstanz, Germany, http://www.knime.org/), graphs were prepared in GraphPad Prism 6 (GraphPad Software, La Jolla, Calif.).

COC(=O)CC(C(C)=O)C(=O)SCCNC(=O)CCNC(=O)[C@H](O)C(C)(C)CO (some centres unmarked) [Compound 410]
Ratio of M1/M2 macrophages in bone marrow [1]: 3.87
Ratio of M1/M2 macrophages compared with mice on a control diet [1]: statistically indistinguishable

C[C@H](CC(=O)SCCNC(=O)CCNC(=O)[C@H](O)C(C)(C)CO)OC(=O)CCC(=O)O [Compound 1243, 4-{[(2R)-4-[(2-{3-[(2R)-2,4-dihydroxy-3,3-dimethylbutanamido]propanamido}ethyl)sulfanyl]-4-oxobutan-2-yl]oxy}-4-oxobutanoic acid]
% prevention of forskolin-induced cyst swelling ([2]; 50 uM): ≥10%

CC(C)(CO)[C@@H](O)C(=O)NCCC(=O)NCCSC(=O)CCC(=O)O [Compound 1, (R)-4-((2-(3-(2,4-dihydroxy-3,3-dimethylbutanamido)propanamido)ethyl)thio)-4-oxobutanoic acid]
Ratio of M1/M2 macrophages in bone marrow [1]: 3.967
Ratio of M1/M2 macrophages compared with mice on a control diet [1]: statistically indistinguishable

CC(C)(CO)[C@@H](O)C(=O)NCCC(=O)NCCSC(=O)CCCO [Compound 1304, (2R)-2,4-dihydroxy-N-[2-([2-[(4-hydroxybutanoyl)sulfanyl]ethyl]carbamoyl)ethyl]-3,3-dimethylbutanamide]
% prevention of forskolin-induced cyst swelling ([2]; 10 uM): ≥10%

COC(=O)CC(SCCNC(=O)CCNC(=O)[C@H](O)C(C)(C)COC(C)=O)C(=O)OC (stereo partly drawn) [Compound 149, 1,4-dimethyl 2-[(2-[3-[(2R)-4-(acetyloxy)-2-hydroxy-3,3-dimethylbutanamido]propanamido]ethyl)sulfanyl]butanedioate]
% prevention of forskolin-induced cyst swelling ([2]; 50 uM): ≥10%

CC(C)(CO)[C@@H](O)C(=O)NCCC(=O)NCCSC(=O)C1CCC(=O)N1 (stereo partly drawn) [Compound 1227, S-2-{3-[(R)-2,4-dihydroxy-3,3-dimethylbutyrylamino]propionylamino}ethyl 5-oxo-2-pyrrolidinecarbothioate]
% prevention of forskolin-induced cyst swelling ([2]; 10 uM): ≥10%

From patent publication US20230107216A1, “PANTETHEINE DERIVATIVES AND USES THEREOF” (Comet Therapeutics, Inc., priority 2018, published 2023)
